Measured values: US9687522B2, “Methods of treating a subject afflicted with an autoimmune disease using predictive biomarkers of clinical response to glatiramer acetate therapy in multiple sclerosis” (TEVA PHARMACEUTICAL INDUSTRIES, LTD., priority 2010, dated 2017)

How the values were obtained:
IL-10 = IL-10 by ELISA in ex-vivo PBMC supernatant of GA-treated MS patients; assay type: cell-based, human
Method: (§1) Approximately 60 cc of blood was obtained by venipuncture from each MS patient pre-treatment and at successive time points during treatment (3 months, 6 months, 9-12 months and 24 months). PBMC were purified using Ficoll-Hypaque gradients as described in the supplier's protocol (ICN Biomedicals Inc. Ohio, USA). Samples from collaborating centers were sent via overnight FedEx™ delivery at room temperature and processed immediately upon arrival.
(§2) 2×10^5 PBMC/well were seeded in 96 well U-bottom micro titer plate in the absence of antigen (unstimulated condition) (US) or the presence of GA at 40 and 100 μg/ml (Teva Pharmaceutical Industries, Ltd., Israel), tetanus toxoid (TT 5 μg) obtained from UMASS (University of Mass, Worcester, Mass.). The latter was used as a control antigen. Supernatants were collected from cultured cells at days 1, 3 and 5 for various assays. After 5 days, 1 μCi ^3H-thymidine was added. Cells were harvested 18 hours later using TOMTEC cell harvester (TOMTEC, Hamden Conn.). Incorporated radioactivity was measured using a liquid Scintillation counter (Wallac MicroBeta Trilux, PerkinElmer, Boston, Mass.).
(§3) Interleukin-18 and caspase-1 levels were detected by human ELISA kits (Sandwich ELISA, Bender Nedaystems, USA). The sensitivity of the ELISA was 9.2 and 3.3 pg/ml for IL-18 and caspase-1 respectively. TGF-β, TNF-α, IL-4, IFN-γ, IL-17 and IL-10 levels were detected by human ELISA kits from ebioscience (San Diego Calif., 92121 USA). The sensitivity of the ebioscience kits were 60 pg/ml, 4 pg/ml, 2 pg/ml, 4 pg/ml, 4 pg/ml and 2 pg/ml respectively. BDNF was detected by the Human BDNF ELISA kit from Chemicon International (catalog #CYT306). The sensitivity of the BDNF ELISA was 7.8 pg/ml. […] Duplicates should be within 20% of the mean.

IFN-γ [1] = experiment: Serum IFN-γ by ELISA in GA-treated MS patients; assay type: in vivo, human
Description: as §1, §3

IFN-γ [2] = experiment: IFN-γ ELISPOT in ex-vivo PBMC of GA-treated MS patients; assay type: cell-based, human; settings: CD3/CD28 stimulated PBMC
Description: as §1
(§4) Human IFN-γ (Th1 indicator) and IL-4 (Th2 indicator) were measured by the ELISPOT assay according to the manufacturer's protocol (BD Biosciences, San Diego, Calif., USA). Briefly, ELISPOT plates (PVDF plate, Millipore Corporation, MA, USA) were coated with 100 μl/well of 5 μg/ml capture antibody at 4° C. over night. The plates were then washed with PBS, and incubated with 200 μl/well of blocking solution (culture medium) for 2 hours. PBMC (2×10^5 cells/well for IFN-γ and 4×10^5 cells/well for IL-4 detection) and antigen (GA 40 and 100 μg/ml, TT 5 μg/ml, CD3Ab (2.5 μg/ml)/CD28 Ab (1 μg/ml)) was added and cultured overnight at 37° C. in a 5% CO2 incubator. Samples were tested in triplicate wells in response to each antigen. After overnight culture, the plates were washed twice with deionized water and three times with PBS, then incubated with 100 μl of 2.0 μg/ml biotinylated antibody for 2 hours at room temperature. The plates were then washed three times with wash buffer (0.05% Tween-20 PBS), and incubated with 100 μl of 1:100 dilution of Avidin-HRP for 1 hour at room temperature and washed three times with wash buffer. Finally 100 μl of AEC (3-amino-9-ethyl-carbazole) substrate was added and the reaction was stopped by washing plates with distilled water. Spots were counted and analyzed by CTL Analyzers LLC ELISPOT Plate Reader (Cleveland, Ohio, USA).

caspase-1 = experiment: Serum caspase-1 by ELISA in GA-treated MS patients; assay type: in vivo, human
Description: as §1, §3

BDNF = experiment: Serum BDNF by ELISA in GA-treated MS patients; assay type: in vivo, human; settings: GA-R and GA-HR/NR, all treatment time points
Description: as §1, §3

RRMS subjects = settings: cited from earlier work
IL-18 = IL-18 by ELISA in ex-vivo PBMC supernatant of GA-treated MS patients; assay type: cell-based, human; settings: both groups
Method: as §1
as §2, with “Cells were harvested 18 hours later using TOMTEC cell harvester (TOMTEC, Hamden Conn.).” left out
Interleukin-18 and caspase-1 levels were detected by human ELISA kits (Sandwich ELISA, Bender Nedaystems, USA). […] TGF-β, TNF-α, IL-4, IFN-γ, IL-17 and IL-10 levels were detected by human ELISA kits from ebioscience (San Diego Calif., 92121 USA). […] BDNF was detected by the Human BDNF ELISA kit from Chemicon International (catalog #CYT306). […]

IL-4/IFN-γ ratio = IL-4/IFN-γ ratio by ELISPOT in ex-vivo PBMC of GA-treated MS patients; assay type: cell-based, human; settings: for IL-4/IFN-γ RATIO (ELISPOT): CD3/CD28 stimulated PBMC
Description: as §1, §4

[3] = test system: class II MHC molecules of mouse and human origin; settings: cited from earlier work
IL-17 = IL-17 by ELISA in ex-vivo PBMC supernatant of GA-treated MS patients; assay type: cell-based, human
Method: as §1, §2, §3

[4] = GA 20 mg, largest controlled study

Serum caspase-1 level (caspase-1; HR/NR, 3 mo): 284 ± 35 pg/mL
Serum caspase-1 level (caspase-1; HR/NR, 6 mo): 302 ± 42 pg/mL
Serum caspase-1 level (caspase-1; HR/NR, 9-12 mo): 255 ± 21 pg/mL
Serum caspase-1 level (caspase-1; HR/NR, 24 mo): 276 ± 7 pg/mL
Serum caspase-1 level (caspase-1; HR/NR, Pre-Rx): 300 ± 29 pg/mL
Serum caspase-1 level (caspase-1; R, 3 mo): 279 ± 23 pg/mL
Serum caspase-1 level (caspase-1; R, 6 mo): 187 ± 21 pg/mL
Serum caspase-1 level (caspase-1; R, 9-12 mo): 288 ± 12 pg/mL
Serum caspase-1 level (caspase-1; R, 24 mo): 282 ± 11 pg/mL
Serum caspase-1 level (caspase-1; R, Pre-Rx): 325 ± 26 pg/mL
Δ Caspace 6 months, Median (Non-Responders) (caspase-1; serum, change from baseline): −19
Δ Caspace 6 months, Median (Responders) (caspase-1; serum, change from baseline): −142.5
Substance: Glatiramer acetate [GA]
Supernatant IL-10 level (IL-10; HR/NR, 3 mo): 160 ± 65 pg/mL
Supernatant IL-10 level (IL-10; HR/NR, 6 mo): 153 ± 69 pg/mL
Supernatant IL-10 level (IL-10; HR/NR, 9-12 mo): 181 ± 22 pg/mL
Supernatant IL-10 level (IL-10; HR/NR, 24 mo): 200 ± 59 pg/mL
Supernatant IL-10 level (IL-10; HR/NR, Pre-Rx): 143 ± 61 pg/mL
Supernatant IL-10 level (IL-10; R, 3 mo): 200 ± 65 pg/mL
Supernatant IL-10 level (IL-10; R, 6 mo): 310 ± 64 pg/mL
Supernatant IL-10 level (IL-10; R, 9-12 mo): 249 ± 70 pg/mL
Supernatant IL-10 level (IL-10; R, 24 mo): 255 ± 45 pg/mL
Supernatant IL-10 level (IL-10; R, Pre-Rx): 170 ± 60 pg/mL
Serum IFN-γ level (IFN-γ [1]; HR/NR, 3 mo): 27 ± 1.45 pg/mL
Serum IFN-γ level (IFN-γ [1]; HR/NR, 6 mo): 26 ± 1.53 pg/mL
Serum IFN-γ level (IFN-γ [1]; HR/NR, 9-12 mo): 52 ± 5.8 pg/mL
Serum IFN-γ level (IFN-γ [1]; HR/NR, 24 mo): 45 ± 5.3 pg/mL
Serum IFN-γ level (IFN-γ [1]; HR/NR, Pre-Rx): 25 ± 1.7 pg/mL
Serum IFN-γ level (IFN-γ [1]; R, 3 mo): 25 ± 2.1 pg/mL
Serum IFN-γ level (IFN-γ [1]; R, 6 mo): 24 ± 1.9 pg/mL
Serum IFN-γ level (IFN-γ [1]; R, 9-12 mo): 48 ± 6.3 pg/mL
Serum IFN-γ level (IFN-γ [1]; R, 24 mo): 45 ± 3.8 pg/mL
Serum IFN-γ level (IFN-γ [1]; R, Pre-Rx): 29 ± 2.3 pg/mL
IFN-γ expression (ELISPOT, mean number of spots) (IFN-γ [2]; HR/NR, 3 mo): 206 ± 24
IFN-γ expression (ELISPOT, mean number of spots) (IFN-γ [2]; HR/NR, 6 mo): 233 ± 26
IFN-γ expression (ELISPOT, mean number of spots) (IFN-γ [2]; HR/NR, 9-12 mo): 218 ± 34
IFN-γ expression (ELISPOT, mean number of spots) (IFN-γ [2]; HR/NR, 24 mo): 186 ± 35
IFN-γ expression (ELISPOT, mean number of spots) (IFN-γ [2]; HR/NR, Baseline): 192 ± 26
IFN-γ expression (ELISPOT, mean number of spots) (IFN-γ [2]; R, 3 mo): 182 ± 18
IFN-γ expression (ELISPOT, mean number of spots) (IFN-γ [2]; R, 6 mo): 150 ± 15
IFN-γ expression (ELISPOT, mean number of spots) (IFN-γ [2]; R, 9-12 mo): 110 ± 19
IFN-γ expression (ELISPOT, mean number of spots) (IFN-γ [2]; R, 24 mo): 86 ± 14
IFN-γ expression (ELISPOT, mean number of spots) (IFN-γ [2]; R, Baseline): 197 ± 28
Serum BDNF levels, change during GA treatment (BDNF): did not show significant changes during treatment from baseline in either group
median cumulative number of Gd-enhancing lesions (RRMS subjects; 20 mg group, over 9 months of treatment): 11 lesions
relapse rate (RRMS subjects; [4]): 1.34
relapse rate reduction versus placebo (RRMS subjects; [4]): 32%
tolerability (RRMS subjects; daily standard dose of 20 mg): generally well tolerated
Supernatant IL-18 levels, change during GA treatment (IL-18): did not show any significant changes from baseline
IL-4/IFN-γ RATIO (ELISPOT) (IL-4/IFN-γ ratio; HR/NR, 3 mo): 0.08 ± 0.02
IL-4/IFN-γ RATIO (ELISPOT) (IL-4/IFN-γ ratio; HR/NR, 6 mo): 0.06 ± 0.05
IL-4/IFN-γ RATIO (ELISPOT) (IL-4/IFN-γ ratio; HR/NR, 9-12 mo): 0.08 ± 0.05
IL-4/IFN-γ RATIO (ELISPOT) (IL-4/IFN-γ ratio; HR/NR, 24 mo): 0.10 ± 0.05
IL-4/IFN-γ RATIO (ELISPOT) (IL-4/IFN-γ ratio; HR/NR, Baseline): 0.12 ± 0.05
IL-4/IFN-γ RATIO (ELISPOT) (IL-4/IFN-γ ratio; R, 3 mo): 0.24 ± 0.04
IL-4/IFN-γ RATIO (ELISPOT) (IL-4/IFN-γ ratio; R, 6 mo): 0.32 ± 0.07
IL-4/IFN-γ RATIO (ELISPOT) (IL-4/IFN-γ ratio; R, 9-12 mo): 0.34 ± 0.08
IL-4/IFN-γ RATIO (ELISPOT) (IL-4/IFN-γ ratio; R, 24 mo): 0.25 ± 0.07
IL-4/IFN-γ RATIO (ELISPOT) (IL-4/IFN-γ ratio; R, Baseline): 0.11 ± 0.02
IL-4/IFN-γ ratio in unstimulated and in anti-CD3/CD28 stimulated PBMC (IL-4/IFN-γ ratio; GA-R, during treatment versus pre-treatment): significantly higher among GA-R during treatment compared to pre-treatment levels
binding to class II MHC molecules [3]: binds promiscuously and with high affinity
Supernatant IL-17 level (IL-17; HR/NR, 3 mo): 160 ± 25 pg/mL
Supernatant IL-17 level (IL-17; HR/NR, 6 mo): 146 ± 25 pg/mL
Supernatant IL-17 level (IL-17; HR/NR, 9-12 mo): 129 ± 7.3 pg/mL
Supernatant IL-17 level (IL-17; HR/NR, 24 mo): 179 ± 21 pg/mL
Supernatant IL-17 level (IL-17; HR/NR, Pre-Rx): 178 ± 25 pg/mL
Supernatant IL-17 level (IL-17; R, 3 mo): 184 ± 40 pg/mL
Supernatant IL-17 level (IL-17; R, 6 mo): 60 ± 35 pg/mL
Supernatant IL-17 level (IL-17; R, 9-12 mo): 134 ± 12 pg/mL
Supernatant IL-17 level (IL-17; R, 24 mo): 167 ± 18 pg/mL
Supernatant IL-17 level (IL-17; R, Pre-Rx): 176 ± 31 pg/mL
